Laboratory results: publication PMC10470053, “Diverse p120RasGAP interactions with doubly phosphorylated partners EphB4, p190RhoGAP, and Dok1” (The Journal of Biological Chemistry, 2023)
Several values for one entry are separate records, joined by “and”; a condition that tells them apart may be missing. Equal entries are not always repeated. Where two headings read alike, the source gives them in different places. Square brackets hold non-standard residues; d marks the D form. Ends that are not written are not given here. Peptide text beside a SMILES is read from it. pY = N[C@@H](Cc1ccc(OP(=O)(O)O)cc1)C(=O)O

Assays:
[1] = biological target: T1, RasGAP^232 (p120RasGAP N-SH2, SH3, C-SH2, residues 174–444) (Homo sapiens, UniProt P20936, C236S/C261S/C372S/C402S); assay: Isothermal titration calorimetry, WT RasGAP^232 with phosphopeptides; type: binding
T1 construct: (residues 174–444, termed RasGAP^232); hexahistidine (TEV-cleavable) (N, cleaved yes); made in house; host or cells: E. coli Rosetta (DE3)
T1 sequence (P20936 174-444 C236S/C261S/C372S/C402S): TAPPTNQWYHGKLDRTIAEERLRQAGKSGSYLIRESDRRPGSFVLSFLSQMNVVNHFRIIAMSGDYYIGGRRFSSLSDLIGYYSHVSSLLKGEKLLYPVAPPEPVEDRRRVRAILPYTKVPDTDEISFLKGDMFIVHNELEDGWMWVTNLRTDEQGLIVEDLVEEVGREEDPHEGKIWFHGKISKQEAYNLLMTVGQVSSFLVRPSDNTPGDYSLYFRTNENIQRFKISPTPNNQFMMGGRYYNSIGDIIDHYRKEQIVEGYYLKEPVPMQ
Protocol: (§1) We expressed and purified the region of RasGAP encompassing both SH2 domains with a construct that includes the N-SH2, SH3, and C-SH2 domains (residues 174–444, termed RasGAP^232 ([50])) (Figs. 1A and S2A). Separately, we synthesized peptides containing both phosphotyrosine residues for EphB4 and Dok1 (Fig. 1C). Our previous isothermal titration calorimetry (ITC) study assessed the affinity of RasGAP^232 for doubly phosphorylated p190RhoGAP-A peptide and found a Kd of 10 ± 6 nM for tandem engagement of both phosphotyrosines by both SH2 domains ([50]).
Synthetic peptides were purchased from GenScript and contain N-terminal acetylation and C-terminal amidation for stability. The doubly phosphorylated EphB4 peptide (UniProt ID P54760) used in ITC and SAXS experiments contains residues 586 to 602 (GTKV[pTyr]IDPFT[pTyr]EDPNEA). The singly phosphorylated EphB4 peptides pY590 and pY596 used in ITC experiments contain the residues 586 to 595 (GTKV[pTyr]IDPFT) and residues 592 to 602 (DPFT[pTyr]EDPNE), respectively. The p190RhoGAP peptide (UniProt ID Q9NRY4) used in SAXS experiments contains the residues 1083 to 1111 (SD[pTyr]AEPMDAVVKPRNEEENI[pTyr]SVPH). The Dok1 peptide (UniProt ID Q99704) used in ITC and SAXS experiments contains the residues 291 to 322 (SPPAL[pTyr]AEPLDSLRIAPCPSQDSL[pTyr]SDPLDST). Lyophilized peptides were reconstituted in water, and less soluble peptides (pYpYEphB4 and pY590) were spiked with 20 mM Tris pH 8 or 10 mM NaOH to increase solubility. Concentrations of stock peptides are as follows: pYpY190 stock concentration is 10 mM; pYpYEphB4 stock concentration is 2.5 mM; Dok1 stock concentration is 5.5 mM; pY596 stock concentration is 10 mM; and pY590 stock concentration is 8 mM.
Purified RasGAP^232 protein and solubilized peptides were dialyzed overnight against buffer containing 20 mM Tris pH 8, 250 mM NaCl in Slide-A-Lyzer 3 ml 10 kDa molecular weight cut off cassettes (Spectra-Por) and Micro Float-A-Lyzer 0.1 to 0.2 ml, 0.1 to […] molecular weight cut off devices (Spectra-Por), respectively. Protein and peptide concentrations were determined by A280 measured on a Nanodrop Lite (Thermo Fisher Scientific) instrument using extinction coefficients of 45,840 M^−1 cm^−1 for RasGAP^232 (and mutants), 917 M^−1 cm^−1 for the doubly phosphorylated EphB4 peptide, and 458.5 M^−1 cm^−1 for the singly phosphorylated EphB4 peptides as determined by ([74]). Dok1 peptide concentration was confirmed using Amino Acid Analysis performed at UC Davis Molecular Structure Facility. Samples were centrifuged for 10 min at 4 °C and degassed for 7 min using a Degassing Station (TA Instruments). ITC experiments were performed on a Nano ITC (TA Instruments) by loading protein into the 190 μl sample cell and titrating 20 times with 2.5 μl peptide in the titration syringe. Concentrations for sample cell and syringe for each trial are included in Table S1. The data were analyzed in NanoAnalyze software (TA Instrument) using blank (constant) and independent models (https://www.tainstruments.com/itcrun-dscrun-nanoanalyze-software/).

[2] = biological target: T1, RasGAP^232 (p120RasGAP N-SH2, SH3, C-SH2, residues 174–444); conditions: ref ([50]), cited from earlier work
From the text: as §1, with “Table 1 Isothermal titration calorimetry measurements for p120RasGAP with phosphotyrosine-containing binding partners | column: Kd (μM); n; ΔH (kJ/mol); ΔS (J/mol∗K) || We” for “We”, “([50]). In our current study, titration of the dou ...” for “([50]).”

[3] = ITC, average of trials (Table S1)

Molecule: CC[C@H](C)[C@H](NC(=O)[C@H](CCCNC(=N)N)NC(=O)[C@H](CC(C)C)NC(=O)[C@H](CO)NC(=O)[C@H](CC(=O)O)NC(=O)[C@H](CC(C)C)NC(=O)[C@@H]1CCCN1C(=O)[C@H](CCC(=O)O)NC(=O)[C@H](C)NC(=O)[C@H](Cc1ccc(OP(=O)(O)O)cc1)NC(=O)[C@H](CC(C)C)NC(=O)[C@H](C)NC(=O)[C@@H]1CCCN1C(=O)[C@@H]1CCCN1C(=O)[C@H](CO)NC(C)=O)C(=O)N[C@@H](C)C(=O)N1CCC[C@H]1C(=O)N[C@@H](CS)C(=O)N1CCC[C@H]1C(=O)N[C@@H](CO)C(=O)N[C@@H](CCC(N)=O)C(=O)N[C@@H](CC(=O)O)C(=O)N[C@@H](CO)C(=O)N[C@@H](CC(C)C)C(=O)N[C@@H](Cc1ccc(OP(=O)(O)O)cc1)C(=O)N[C@@H](CO)C(=O)N[C@@H](CC(=O)O)C(=O)N1CCC[C@H]1C(=O)N[C@@H](CC(C)C)C(=O)N[C@@H](CC(=O)O)C(=O)N[C@@H](CO)C(=O)N[C@H](C(N)=O)[C@@H](C)O [pYpY Dok1] (Ac-SPPAL[pY]AEPLDSLRIAPCPSQDSL[pY]SDPLDST-NH2)
- n ([1]; ITC stoichiometry, mean ± SD of trials): 0.8 ± 0.1
- Kd ([1]; ITC, 20 mM Tris pH 8, 250 mM NaCl, independent model, mean ± SD of trials (n = 4 EphB4, n = 3 Dok1)): 0.03 ± 0.02 µM
- -T∆S [1, 3]: 8.37 kcal/mol
- Ka [1, 3]: 40 µM⁻¹
- ∆G [1, 3]: -10.3 kcal/mol
- ΔH ([1]; ITC, mean ± SD of trials): -18.6 kcal/mol and -18.6 ± 0.72 kcal/mol
- ΔS ([1]; ITC, mean ± SD of trials): -120 J/mol∗K and −120 ± 14 J/mol∗K
- -T∆S ([1]; trial 1, ITC): 7.17 kcal/mol
- Ka ([1]; trial 1, ITC): 63 µM⁻¹
- ∆G ([1]; trial 1, ITC): -10.5 kcal/mol
- ∆H ([1]; trial 1, ITC): -17.9 kcal/mol
- ∆S ([1]; trial 1, ITC): -102 J/mol*K
- -T∆S ([1]; trial 2, ITC): 9.32 kcal/mol
- Ka ([1]; trial 2, ITC): 21 µM⁻¹
- ∆G ([1]; trial 2, ITC): -10 kcal/mol
- ∆H ([1]; trial 2, ITC): -19.4 kcal/mol
- ∆S ([1]; trial 2, ITC): -131 J/mol*K
- -T∆S ([1]; trial 3, ITC): 8.37 kcal/mol
- Ka ([1]; trial 3, ITC): 43 µM⁻¹
- ∆G ([1]; trial 3, ITC): -10.5 kcal/mol
- ∆H ([1]; trial 3, ITC): -18.6 kcal/mol
- ∆S ([1]; trial 3, ITC): -116 J/mol*K

Molecule: SD[pY]AEPMDAVVKPRNEEENI[pY]SVPH [pYpY p190RhoGAP-A, Doubly phosphorylated p190RhoGAP-A peptide (pY1087, pY1105)]
- affinity tighter than individual SH2–phosphotyrosine interactions ([1]; ITC Kd, compared with individual SH2 interactions (Table 1, ref [60])): 15- to 30 fold
- n ([2]; ITC stoichiometry): 0.6 ± 0.1
- Kd ([2]; ITC): 0.01 ± 0.006 µM
- ΔH ([2]; ITC): -31.1 ± 4.78 kcal/mol
- ΔS ([2]; ITC): −281 ± 77 J/mol∗K
